{
  "source": "patent US10166237B2",
  "about": "“Compounds and methods for inducing chondrogenesis” (The Scripps Research Institute, priority 2011, dated 2019)",
  "data": [
    {"system": "human mesenchymal stem cells (hMSCs)", "assay": "chondrogenic nodule formation by hMSCs (high throughput screen)", "assay_type": "cell-based", "settings": "not given", "protocol": "(§1) The primary screening assay was based upon the development of chondrogenic nodules. Chondrocytes can grow in monolayer in vitro, but to more closely mimic their native environment in the joint, the cells are routinely cultured in non-adherent conditions such as in pellet cultures or alginate bead suspensions.\n(§2) In the actual screen of a library of 22,000 structurally diverse heterocycles, 10^4 primary hMSCs were plated in 384 well plates in serum free DMEM. The cells were treated with 5 μM of each compound and incubated for 4 days. […] To facilitate high throughput imaged-based detection, the chondrogenic nodules were stained with […]. The Nile Red stained nodules were quantified on an Acumen eX3 (high content imaging device) by excitation with a 488 laser for rapid detection of the nodules.\n(§3) Primary hMSCs grown in a 96 well Greiner plates (50,000/well) were incubated for 4 days in the presence of the 5 uM of each DMSO or 100 nM of PRO1. On day 4, the cells were fixed with 4% formalin for 10 minutes, washed and stained with 1 μg/ml of Rhodamine B for 2 hours at room temperature.", "values": [
      {"smiles": "NC(=O)c1cccc(NC(=O)c2ccccc2C(=O)O)c1", "note": "[Compound N11]", "Activity (chondrogenic nodules formed in % of cells)": "** (chondrogenic nodules formed in at least 25% but less than 50% of cells)"},
      {"smiles": "O=C(O)c1ccc(C(=O)CC2OC(=O)c3ccccc32)cc1", "note": "(stereo not shown) [MS18-1]", "Activity (chondrogenic nodules formed in % of cells)": "** (chondrogenic nodules formed in at least 25% but less than 50% of cells)"},
      {"smiles": "N#Cc1ccc(N2C(=O)c3ccccc3C2=O)cc1", "note": "[MS28]", "Activity (chondrogenic nodules formed in % of cells)": "** (chondrogenic nodules formed in at least 25% but less than 50% of cells)"},
      {"smiles": "O=C(O)c1ccccc1C(=O)Nc1cnc(-c2ccccc2)s1", "note": "[Compound N45]", "Activity (chondrogenic nodules formed in % of cells)": "*** (chondrogenic nodules formed in at least 50% but less than 75% of cells)"},
      {"smiles": "N#Cc1ccc(/C=C/C(=O)c2ccccc2C(=O)O)cc1", "note": "[MS15, 2-[(2E)-3-(4-cyanophenyl)prop-2-enoyl]benzoic acid]", "Activity (chondrogenic nodules formed in % of cells)": "*** (chondrogenic nodules formed in at least 50% but less than 75% of cells)"},
      {"smiles": "CC(=O)c1cccc(NC(=O)c2ccccc2C(=O)O)c1", "note": "[Compound N08]", "Activity (chondrogenic nodules formed in % of cells)": "**** (chondrogenic nodules formed in at least 75% of cells)"},
      {"smiles": "N#Cc1ccc(NC(=O)c2cc(C#N)ccc2C(=O)O)cc1", "note": "[Compound B03, sodium 4-cyano-2-[(4-cyanophenyl)carbamoyl]benzoate]", "Activity (chondrogenic nodules formed in % of cells)": "*** (chondrogenic nodules formed in at least 50% but less than 75% of cells)"},
      {"smiles": "O=C(O)c1ccccc1C(=O)Nc1cnccn1", "note": "[Compound N52]", "Activity (chondrogenic nodules formed in % of cells)": "** (chondrogenic nodules formed in at least 25% but less than 50% of cells)"},
      {"smiles": "O=C(O)c1ccccc1CNC(=O)c1ccccc1C(=O)O", "note": "[MS01]", "Activity (chondrogenic nodules formed in % of cells)": "*** (chondrogenic nodules formed in at least 50% but less than 75% of cells)"},
      {"smiles": "N#Cc1ccc(N2Cc3ccccc3C2=O)cc1", "note": "[MS26]", "Activity (chondrogenic nodules formed in % of cells)": "** (chondrogenic nodules formed in at least 25% but less than 50% of cells)"},
      {"smiles": "N#Cc1ccc(NC(=O)c2c(C(=O)O)cccc2C(=O)O)cc1", "note": "[Compound B12]", "Activity (chondrogenic nodules formed in % of cells)": "** (chondrogenic nodules formed in at least 25% but less than 50% of cells)"},
      {"smiles": "N#Cc1ccc(NC(=O)c2ccc(C#N)cc2C(=O)O)cc1", "note": "[Compound B02]", "Activity (chondrogenic nodules formed in % of cells)": "** (chondrogenic nodules formed in at least 25% but less than 50% of cells)"},
      {"smiles": "O=C(O)c1ccccc1C(=O)NCC1CCC(C(=O)O)CC1", "note": "(stereo not shown) [Compound N33]", "Activity (chondrogenic nodules formed in % of cells)": "** (chondrogenic nodules formed in at least 25% but less than 50% of cells)"},
      {"smiles": "N#Cc1ccc(NC(=O)c2ccc(C(=O)O)cc2C(=O)O)cc1", "note": "[Compound B10]", "Activity (chondrogenic nodules formed in % of cells)": "** (chondrogenic nodules formed in at least 25% but less than 50% of cells)"},
      {"smiles": "N#Cc1ccc2nc(-c3ccccc3C(=O)O)sc2c1", "note": "[Compound R06-1]", "Activity (chondrogenic nodules formed in % of cells)": "** (chondrogenic nodules formed in at least 25% but less than 50% of cells)"},
      {"smiles": "O=C(O)c1ccccc1C(=O)Nc1ncccn1", "note": "[Compound N50]", "Activity (chondrogenic nodules formed in % of cells)": "** (chondrogenic nodules formed in at least 25% but less than 50% of cells)"},
      {"smiles": "N#Cc1ccc(NC(=O)c2ccccc2C#N)cc1", "note": "[Compound A01]", "Activity (chondrogenic nodules formed in % of cells)": "** (chondrogenic nodules formed in at least 25% but less than 50% of cells)"},
      {"smiles": "O=C(O)c1cccc(CNC(=O)c2ccccc2C(=O)O)c1", "note": "[MS02]", "Activity (chondrogenic nodules formed in % of cells)": "** (chondrogenic nodules formed in at least 25% but less than 50% of cells)"},
      {"smiles": "N#Cc1ccc(NC(=O)c2ccccc2S(=O)(=O)O)cc1", "note": "[Compound A22]", "Activity (chondrogenic nodules formed in % of cells)": "** (chondrogenic nodules formed in at least 25% but less than 50% of cells)"},
      {"smiles": "N#Cc1ccc(S(=O)(=O)Nc2ccccc2C(=O)O)cc1", "note": "[Compound R07]", "Activity (chondrogenic nodules formed in % of cells)": "** (chondrogenic nodules formed in at least 25% but less than 50% of cells)"},
      {"smiles": "O=C(O)c1ccccc1C(=O)Nc1ccc(N2CCOCC2)cc1", "note": "[Compound N28]", "Activity (chondrogenic nodules formed in % of cells)": "** (chondrogenic nodules formed in at least 25% but less than 50% of cells)"}
    ]},
    {"system": "human mesenchymal stem cells (hMSCs)", "assay": "chondrogenic nodule formation by hMSCs (high throughput screen)", "assay_type": "cell-based", "settings": "Homo sapiens, Mesenchymal stem cells; first value of the cell (before the slash); read-out: CHONDROGENIC μM EC50", "protocol": "as §1, §2, §3", "units": {"EC50": "µM"}, "values": [
      {"smiles": "N#Cc1ccccc1NC(=O)c1ccccc1C(=O)O", "note": "[LK13b]", "EC50": "> 10"}
    ]}
  ]
}
